Results from PubChem BioAssay AID463149 (The Scripps Research Institute Molecular Screening Center, 2010).

Legend:
Assay in all cases: PME-1 inhibition and serine hydrolase selectivity by ABPP – cell lysate, gel-based competitive ABPP, fluorescence, powder samples, selectivity assay, late-stage follow-up (AID 463149);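 further: 0% = DMSO-treated band intensity and 100% = blank gel background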
[1] = biological target: Fatty acid synthase (Homo sapiens) (UniProt P49327); details: HeLa soluble proteome, FP-Rh fluorescence, measured here: Anti-Target FAS, stronger effect = higher value
Sequence of Fatty acid synthase (Homo sapiens) (P49327 whole entry, looked up): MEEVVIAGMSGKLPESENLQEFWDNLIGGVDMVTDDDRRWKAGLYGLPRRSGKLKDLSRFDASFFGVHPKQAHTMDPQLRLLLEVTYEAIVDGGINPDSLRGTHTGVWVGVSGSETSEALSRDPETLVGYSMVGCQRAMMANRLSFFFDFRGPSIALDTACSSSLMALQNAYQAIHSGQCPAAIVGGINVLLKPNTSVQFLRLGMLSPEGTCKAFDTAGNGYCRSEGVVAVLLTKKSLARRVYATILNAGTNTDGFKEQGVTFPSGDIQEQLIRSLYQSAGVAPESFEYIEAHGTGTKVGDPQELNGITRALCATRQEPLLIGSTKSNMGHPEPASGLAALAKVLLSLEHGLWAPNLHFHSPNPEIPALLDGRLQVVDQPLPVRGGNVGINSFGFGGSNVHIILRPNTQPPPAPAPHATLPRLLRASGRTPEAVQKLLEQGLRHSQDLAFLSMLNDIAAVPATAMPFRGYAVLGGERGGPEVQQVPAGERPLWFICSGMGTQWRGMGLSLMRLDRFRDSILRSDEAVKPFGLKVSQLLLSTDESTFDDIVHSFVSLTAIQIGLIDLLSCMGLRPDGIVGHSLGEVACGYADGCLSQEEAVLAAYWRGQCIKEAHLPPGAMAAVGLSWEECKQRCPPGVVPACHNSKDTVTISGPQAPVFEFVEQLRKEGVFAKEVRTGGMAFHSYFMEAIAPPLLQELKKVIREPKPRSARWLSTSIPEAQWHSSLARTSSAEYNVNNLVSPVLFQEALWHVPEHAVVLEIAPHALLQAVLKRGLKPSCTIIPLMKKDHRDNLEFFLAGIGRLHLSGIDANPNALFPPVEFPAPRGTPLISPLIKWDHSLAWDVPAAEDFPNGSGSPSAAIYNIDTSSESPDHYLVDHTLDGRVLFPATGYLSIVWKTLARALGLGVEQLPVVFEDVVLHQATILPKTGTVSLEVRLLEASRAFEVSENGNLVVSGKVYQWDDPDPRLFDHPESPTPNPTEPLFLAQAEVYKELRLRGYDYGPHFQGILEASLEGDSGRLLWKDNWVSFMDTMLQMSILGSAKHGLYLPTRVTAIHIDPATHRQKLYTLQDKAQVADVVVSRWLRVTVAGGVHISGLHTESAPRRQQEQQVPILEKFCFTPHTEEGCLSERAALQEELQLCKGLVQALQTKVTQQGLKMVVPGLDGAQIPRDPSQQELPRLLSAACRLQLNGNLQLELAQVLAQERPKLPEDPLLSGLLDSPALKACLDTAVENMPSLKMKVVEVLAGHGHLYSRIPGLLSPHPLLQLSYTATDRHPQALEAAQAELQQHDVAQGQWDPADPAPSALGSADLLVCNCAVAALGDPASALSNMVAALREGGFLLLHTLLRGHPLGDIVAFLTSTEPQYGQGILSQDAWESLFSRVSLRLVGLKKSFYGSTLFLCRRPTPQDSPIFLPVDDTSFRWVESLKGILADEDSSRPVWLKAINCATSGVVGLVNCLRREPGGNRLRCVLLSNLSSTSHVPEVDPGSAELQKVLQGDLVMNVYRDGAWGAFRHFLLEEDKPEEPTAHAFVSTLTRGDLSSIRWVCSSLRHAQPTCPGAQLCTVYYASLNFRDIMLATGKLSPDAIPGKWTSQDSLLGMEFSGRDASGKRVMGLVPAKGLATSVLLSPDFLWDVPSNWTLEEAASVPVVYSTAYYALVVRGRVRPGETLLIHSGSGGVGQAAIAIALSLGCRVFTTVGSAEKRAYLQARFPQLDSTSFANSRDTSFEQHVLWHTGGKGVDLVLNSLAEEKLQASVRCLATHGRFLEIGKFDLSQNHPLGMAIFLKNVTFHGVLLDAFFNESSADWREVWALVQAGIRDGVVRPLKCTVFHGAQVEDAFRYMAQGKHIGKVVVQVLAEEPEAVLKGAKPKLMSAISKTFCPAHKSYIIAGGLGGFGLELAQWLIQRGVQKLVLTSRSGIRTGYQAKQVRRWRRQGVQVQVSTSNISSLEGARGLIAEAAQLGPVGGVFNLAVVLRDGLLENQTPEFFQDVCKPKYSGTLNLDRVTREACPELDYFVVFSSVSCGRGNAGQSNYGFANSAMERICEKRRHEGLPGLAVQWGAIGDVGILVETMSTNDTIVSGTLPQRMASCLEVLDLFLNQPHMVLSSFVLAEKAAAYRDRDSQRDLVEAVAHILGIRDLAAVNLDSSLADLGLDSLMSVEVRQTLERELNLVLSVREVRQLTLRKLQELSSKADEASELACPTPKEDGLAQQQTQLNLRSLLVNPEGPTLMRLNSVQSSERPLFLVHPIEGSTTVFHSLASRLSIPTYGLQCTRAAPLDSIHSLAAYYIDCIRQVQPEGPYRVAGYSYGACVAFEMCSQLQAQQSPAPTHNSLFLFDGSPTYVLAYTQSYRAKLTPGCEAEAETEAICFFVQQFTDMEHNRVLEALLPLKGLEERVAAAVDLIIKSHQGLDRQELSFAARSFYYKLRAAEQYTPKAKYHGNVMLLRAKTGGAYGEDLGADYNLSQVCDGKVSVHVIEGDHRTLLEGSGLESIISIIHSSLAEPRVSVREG

[2] = biological target: Protein phosphatase methylesterase 1 (Homo sapiens) (UniProt Q9Y570); details: HeLa soluble proteome, FP-Rh fluorescence, stronger effect = higher value
Sequence of Protein phosphatase methylesterase 1 (Homo sapiens) (Q9Y570 whole entry, looked up): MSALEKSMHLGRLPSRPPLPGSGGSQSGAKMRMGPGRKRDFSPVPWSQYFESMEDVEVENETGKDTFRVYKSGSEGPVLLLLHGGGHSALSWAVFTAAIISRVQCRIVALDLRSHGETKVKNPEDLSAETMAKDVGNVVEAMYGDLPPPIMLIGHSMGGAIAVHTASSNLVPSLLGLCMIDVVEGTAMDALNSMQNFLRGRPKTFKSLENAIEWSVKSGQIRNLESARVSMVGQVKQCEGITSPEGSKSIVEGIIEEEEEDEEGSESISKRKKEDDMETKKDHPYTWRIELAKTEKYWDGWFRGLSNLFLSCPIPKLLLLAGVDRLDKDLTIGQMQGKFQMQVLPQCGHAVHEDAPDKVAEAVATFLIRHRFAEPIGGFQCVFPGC

Anti-Target ABHD10 = details: HeLa soluble proteome, FP-Rh fluorescence, stronger effect = higher value
Anti-Target CES = details: HeLa soluble proteome, FP-Rh fluorescence, measured here: Anti-Target CES, stronger effect = higher value
[3] = biological target: Acylamino-acid-releasing enzyme (Homo sapiens) (UniProt P13798); details: HeLa soluble proteome, FP-Rh fluorescence, measured here: Anti-Target APEH, stronger effect = higher value
Sequence of Acylamino-acid-releasing enzyme (Homo sapiens) (P13798 whole entry, looked up): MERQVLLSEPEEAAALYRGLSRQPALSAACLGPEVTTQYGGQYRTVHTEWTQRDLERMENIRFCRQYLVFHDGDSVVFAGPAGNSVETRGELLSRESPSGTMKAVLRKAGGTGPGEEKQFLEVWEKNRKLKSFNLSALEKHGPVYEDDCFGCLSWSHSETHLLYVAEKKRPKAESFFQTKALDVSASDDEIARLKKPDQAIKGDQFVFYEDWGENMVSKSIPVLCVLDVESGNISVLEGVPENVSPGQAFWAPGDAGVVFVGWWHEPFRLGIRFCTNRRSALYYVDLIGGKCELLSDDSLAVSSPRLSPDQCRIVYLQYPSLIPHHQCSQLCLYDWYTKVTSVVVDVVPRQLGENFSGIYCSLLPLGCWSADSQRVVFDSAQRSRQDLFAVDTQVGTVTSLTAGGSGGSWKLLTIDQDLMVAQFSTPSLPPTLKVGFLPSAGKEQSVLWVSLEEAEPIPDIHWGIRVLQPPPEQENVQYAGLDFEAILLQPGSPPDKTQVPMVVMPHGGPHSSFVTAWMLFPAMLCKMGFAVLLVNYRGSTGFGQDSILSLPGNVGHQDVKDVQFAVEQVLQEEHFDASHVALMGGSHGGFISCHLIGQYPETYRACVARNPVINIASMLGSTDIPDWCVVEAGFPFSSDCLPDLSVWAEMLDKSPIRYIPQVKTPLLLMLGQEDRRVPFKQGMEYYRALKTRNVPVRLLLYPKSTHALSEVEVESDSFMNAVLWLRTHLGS

Anti-Target PREP = details: HeLa soluble proteome, FP-Rh fluorescence, measured here: Anti-Target PREP, stronger effect = higher value
[4] = measured here: Anti-Target ABHD10, at 1 µM
[5] = measured here: Anti-Target ABHD10, at 20 µM

SMILES | inhibition ([1]; at 1 µM) [%] | inhibition ([1]; at 20 µM) [%] | inhibition ([2]; PME-1, at 0.1 µM) [%] | inhibition ([2]; PME-1, inhibition, at 1 µM) [%] | inhibition ([2]; PME-1, inhibition, at 20 µM) [%] | inhibition (Anti-Target ABHD10; [4]) [%] | inhibition (Anti-Target ABHD10; [5]) [%] | inhibition (Anti-Target CES; at 1 µM) [%] | inhibition (Anti-Target CES; at 20 µM) [%] | inhibition ([3]; at 1 µM) [%] | inhibition ([3]; at 20 µM) [%] | inhibition (Anti-Target PREP; at 1 µM) [%] | inhibition (Anti-Target PREP; at 20 µM) [%]
COC(=O)N1C(=O)[C@](c2ccccc2)(C2CCCCC2)N1C(=O)OC | 0 | > 50 | 90 | 100 | 100 | 0 | 0 | 0 | 0 | 0 | 0 | 0 | 0
CC[C@@]1(c2cccc(C)c2)C(=O)N(C(=O)OC)N1C(=O)OC | 0 | > 50 |  | 0 | 100 | 0 | 50 | > 50 | > 50 | 0 | 0 | 0 | > 50
COC(=O)N1C(=O)[C@](c2ccccc2)(C(C)C)N1C(=O)OC | 0 | 0 |  | 100 | 100 | 0 | 0 | 0 | 0 | 0 | 0 | 0 | 0
CC[C@@]1(c2ccccc2)C(=O)N(C(=O)OC)N1C(=O)OC | 0 | 0 |  | 0 | 100 | 0 | 50 | 0 | > 50 | 0 | 0 | 0 | > 50
COC(=O)N1C(=O)[C@](c2ccsc2)(C(C)C)N1C(=O)OC | 0 | 0 |  | 50 | 100 | 0 | 0 | 0 | 0 | 0 | 0 | 0 | 0
CC[C@]1(c2ccccc2)C(=O)N(C(=O)OC)N1C(=O)OC | 0 | 0 |  | 75 | 100 | 0 | 0 | > 50 | > 50 | 0 | 0 | 0 | 0
COC(=O)N1C(=O)[C@@](Cc2ccccc2)(c2ccccc2)N1C(=O)OC | 0 | 0 |  | 0 | 50 | 0 | 50 | > 50 | > 50 | 0 | 0 | 0 | 0
COC(=O)N1C(=O)[C@@](CC(C)C)(c2ccccc2)N1C(=O)OC | 0 | > 50 |  | 100 | 100 | 0 | 0 | > 50 | > 50 | 0 | > 50 | 0 | 0
COC(=O)N1C(=O)[C@@](c2ccccc2)(C(C)C)N1C(=O)OC | 0 | 0 |  | 0 | 100 | 0 | 0 | 0 | > 50 | 0 | 0 | 0 | 0
COC(=O)N1C(=O)[C@](c2ccc(OC)cc2)(C(C)C)N1C(=O)OC | 0 | > 50 |  | 100 | 100 | 0 | 0 | 0 | 0 | 0 | 0 | 0 | 0
CCOC(=O)N1C(=O)[C@](CC)(c2ccccc2)N1C(=O)OCC | 0 | > 50 |  | 0 | 100 | 0 | 0 | > 50 | > 50 | 0 | 0 | 0 | 0
COC(=O)N1C(=O)[C@@](c2ccccc2)(C2CCCC2)N1C(=O)OC | 0 | 0 | 50 | 100 | 100 | 0 | 0 | 0 | 0 | 0 | 0 | 0 | 0
COC(=O)N1C(=O)[C@](CC(C)C)(c2ccccc2)N1C(=O)OC | > 50 | > 50 | 100 | 100 | 100 | 0 | 0 | > 50 | > 50 | 0 | > 50 | 0 | 0
CC[C@]1(c2ccccc2C)C(=O)N(C(=O)OC)N1C(=O)OC | 0 | 0 |  | 0 | 100 | 0 | 0 | 0 | > 50 | 0 | 0 | 0 | 0
CCOC(=O)N1C(=O)[C@](c2ccc(Cl)cc2)(C(C)C)N1C(=O)OCC | 0 | 0 |  | 50 | 100 | 0 | 0 | 0 | 0 | 0 | 0 | 0 | 0
COC(=O)N1C(=O)[C@@](c2ccccc2)(C2CCCCC2)N1C(=O)OC | 0 | 0 |  | 100 | 100 | 0 | 0 | 0 | 0 | 0 | 0 | 0 | 0
CCOC(=O)N1C(=O)[C@@](c2ccc(Cl)cc2)(C(C)C)N1C(=O)OCC | 0 | 0 |  | 0 | 0 | 0 | 0 | 0 | 0 | 0 | 0 | 0 | 0
COC(=O)N1C(=O)[C@](Cc2ccccc2)(c2ccccc2)N1C(=O)OC | 0 | > 50 |  | 75 | 100 | 0 | 0 | > 50 | > 50 | 0 | > 50 | 0 | 0
